The values that follow come from US8546414B2, “Ion channel modulators and methods of use” (Vertex Pharmaceuticals Incorporated, priority 2004, dated 2013).

Where two headings read alike, the source gives them in different places.

The target in experiment [1] is T1, NaV1.3 (Homo sapiens, UniProt Q9NY46).
T1 construct: expressed in transfected cells; host or cells: HEK293
The settings on record: read-out: TTX IC50; cited from earlier work.

A further experiment concerns the target NaV1.6 (Homo sapiens, UniProt Q9UQD0). The settings on record: read-out: TTX IC50; cited from earlier work.
Experiment [2] concerns the target T2, NaV1.8 (Homo sapiens, UniProt Q9Y5Y9). The following applies: read-out: TTX IC50; cited from earlier work.
Target sequence in this assay (Q9Y5Y9 whole entry, looked up): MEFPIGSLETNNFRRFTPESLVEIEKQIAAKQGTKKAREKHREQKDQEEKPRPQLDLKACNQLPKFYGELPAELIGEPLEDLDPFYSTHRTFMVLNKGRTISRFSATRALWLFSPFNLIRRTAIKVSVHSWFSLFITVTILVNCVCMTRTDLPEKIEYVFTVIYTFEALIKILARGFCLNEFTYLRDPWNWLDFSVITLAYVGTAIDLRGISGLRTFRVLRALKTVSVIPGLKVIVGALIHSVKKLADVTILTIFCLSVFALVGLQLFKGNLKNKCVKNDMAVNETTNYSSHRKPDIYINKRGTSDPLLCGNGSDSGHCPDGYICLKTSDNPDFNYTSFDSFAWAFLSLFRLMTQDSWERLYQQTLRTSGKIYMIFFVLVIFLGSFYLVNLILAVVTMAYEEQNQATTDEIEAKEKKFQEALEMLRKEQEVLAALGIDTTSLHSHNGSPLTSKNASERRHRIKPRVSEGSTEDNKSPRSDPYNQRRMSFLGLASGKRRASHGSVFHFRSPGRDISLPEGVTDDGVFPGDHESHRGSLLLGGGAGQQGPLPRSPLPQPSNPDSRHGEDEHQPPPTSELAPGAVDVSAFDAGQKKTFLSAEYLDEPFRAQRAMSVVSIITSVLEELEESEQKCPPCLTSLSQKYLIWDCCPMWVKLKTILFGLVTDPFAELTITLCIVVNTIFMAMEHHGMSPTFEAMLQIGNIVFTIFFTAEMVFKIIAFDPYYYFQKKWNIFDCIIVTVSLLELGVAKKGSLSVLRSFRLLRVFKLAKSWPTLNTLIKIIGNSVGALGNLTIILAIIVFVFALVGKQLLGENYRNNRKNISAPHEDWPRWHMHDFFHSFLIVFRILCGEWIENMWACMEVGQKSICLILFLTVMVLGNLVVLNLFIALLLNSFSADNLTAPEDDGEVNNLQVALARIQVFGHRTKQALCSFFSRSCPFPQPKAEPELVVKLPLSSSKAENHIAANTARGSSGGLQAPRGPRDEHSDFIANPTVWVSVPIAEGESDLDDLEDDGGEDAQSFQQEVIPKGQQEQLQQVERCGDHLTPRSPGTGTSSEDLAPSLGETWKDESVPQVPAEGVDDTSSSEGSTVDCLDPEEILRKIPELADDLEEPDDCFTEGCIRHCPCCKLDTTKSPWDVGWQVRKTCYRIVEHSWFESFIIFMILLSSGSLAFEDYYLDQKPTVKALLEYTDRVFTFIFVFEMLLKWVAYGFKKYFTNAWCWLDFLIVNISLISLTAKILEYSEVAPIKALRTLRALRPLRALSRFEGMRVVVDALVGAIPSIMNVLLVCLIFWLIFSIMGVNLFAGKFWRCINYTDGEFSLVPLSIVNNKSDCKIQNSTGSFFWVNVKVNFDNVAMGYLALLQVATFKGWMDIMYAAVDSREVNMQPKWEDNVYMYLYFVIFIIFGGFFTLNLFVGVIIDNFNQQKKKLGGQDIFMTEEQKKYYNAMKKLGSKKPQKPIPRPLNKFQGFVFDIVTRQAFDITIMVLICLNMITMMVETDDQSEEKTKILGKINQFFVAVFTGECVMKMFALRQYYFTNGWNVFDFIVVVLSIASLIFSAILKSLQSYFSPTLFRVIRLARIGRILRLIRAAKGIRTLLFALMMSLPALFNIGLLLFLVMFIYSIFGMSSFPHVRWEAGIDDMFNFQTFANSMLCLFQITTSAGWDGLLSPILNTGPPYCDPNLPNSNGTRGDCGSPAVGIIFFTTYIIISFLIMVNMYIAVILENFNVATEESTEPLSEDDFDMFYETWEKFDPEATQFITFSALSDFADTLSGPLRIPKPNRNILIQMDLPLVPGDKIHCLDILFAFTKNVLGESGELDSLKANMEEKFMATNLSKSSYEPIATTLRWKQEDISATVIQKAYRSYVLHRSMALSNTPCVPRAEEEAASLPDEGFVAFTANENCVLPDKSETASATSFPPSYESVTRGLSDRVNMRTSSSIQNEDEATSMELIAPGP
The target of a further experiment is NaV1.9 (Homo sapiens, UniProt Q9UI33). The following applies: read-out: TTX IC50; cited from earlier work.
Another experiment has as its target NaV1.1 (Homo sapiens, UniProt P35498). The following applies: read-out: TTX IC50; cited from earlier work.
In another experiment the target is NaV1.2 (Homo sapiens, UniProt Q99250). The settings on record: read-out: TTX IC50; cited from earlier work.
The conditions of experiment [3]: neuropathic pain; cited from earlier work.
A further experiment addresses T3, CaV2.2 (Homo sapiens, UniProt Q00975).
T3 construct: expressed in transfected cells; host or cells: HEK293
The experiment in a line: VIPR optical membrane potential assay with electrical stimulation, CaV2.2. In kind it is cell-based. The following applies: Table 9, CaV 2.2 receptors. The method in brief: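 HEK293 cells stably expressing CaV2.2 stained with CC2-DMPE/DiSBAC2(3) voltage-sensitive dyes (10 μM final CC2-DMPE, 30 min, RT), then compound added and cells electrically stimulated for 3-5 s. Read-out: background-subtracted 460/580 nm emission ratio; response R=Rf/Ri (post- vs pre-stimulus ratio); antagonism seen as reduced response.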

The target in experiment [4] is T1, NaV1.3. The experiment in a line: VIPR optical membrane potential assay with electrical stimulation, NaV1.3. The settings on record: Table 9, NaV 1.3 receptors. In kind it is cell-based. Put shortly:
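HEK293 cells stably expressing NaV1.3, stained with CC2-DMPE (10 μM final) then DiSBAC2(3) with ABSC1, 30 min each at RT; compounds added with oxonol. Electrical stimulation for 3 s; 460/580 nm background-subtracted emission ratio Rf/Ri, normalised to tetracaine (positive) and untreated (negative) controls.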

Experiment [5] addresses T2, NaV1.8. As to the kind of experiment: VIPR optical membrane potential assay, NaV1.8 (other subtypes in an analogous mode). The settings on record: Table 9, NaV 1.8 receptors. In kind it is cell-based. The method in brief:
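Cells expressing the NaV subtype stained with coumarin and DiSBAC2(3) membrane-potential dyes, then incubated with test compound for 20-30 minutes. Depolarization evoked by sodium addback and read optically on VIPR; block measured as reduced membrane-potential response, with tetracaine as positive control.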
Target sequence in this assay (Q9Y5Y9 whole entry): as the sequence (Q9Y5Y9 whole entry, looked up) above

T1 sequence (Q9NY46 whole entry): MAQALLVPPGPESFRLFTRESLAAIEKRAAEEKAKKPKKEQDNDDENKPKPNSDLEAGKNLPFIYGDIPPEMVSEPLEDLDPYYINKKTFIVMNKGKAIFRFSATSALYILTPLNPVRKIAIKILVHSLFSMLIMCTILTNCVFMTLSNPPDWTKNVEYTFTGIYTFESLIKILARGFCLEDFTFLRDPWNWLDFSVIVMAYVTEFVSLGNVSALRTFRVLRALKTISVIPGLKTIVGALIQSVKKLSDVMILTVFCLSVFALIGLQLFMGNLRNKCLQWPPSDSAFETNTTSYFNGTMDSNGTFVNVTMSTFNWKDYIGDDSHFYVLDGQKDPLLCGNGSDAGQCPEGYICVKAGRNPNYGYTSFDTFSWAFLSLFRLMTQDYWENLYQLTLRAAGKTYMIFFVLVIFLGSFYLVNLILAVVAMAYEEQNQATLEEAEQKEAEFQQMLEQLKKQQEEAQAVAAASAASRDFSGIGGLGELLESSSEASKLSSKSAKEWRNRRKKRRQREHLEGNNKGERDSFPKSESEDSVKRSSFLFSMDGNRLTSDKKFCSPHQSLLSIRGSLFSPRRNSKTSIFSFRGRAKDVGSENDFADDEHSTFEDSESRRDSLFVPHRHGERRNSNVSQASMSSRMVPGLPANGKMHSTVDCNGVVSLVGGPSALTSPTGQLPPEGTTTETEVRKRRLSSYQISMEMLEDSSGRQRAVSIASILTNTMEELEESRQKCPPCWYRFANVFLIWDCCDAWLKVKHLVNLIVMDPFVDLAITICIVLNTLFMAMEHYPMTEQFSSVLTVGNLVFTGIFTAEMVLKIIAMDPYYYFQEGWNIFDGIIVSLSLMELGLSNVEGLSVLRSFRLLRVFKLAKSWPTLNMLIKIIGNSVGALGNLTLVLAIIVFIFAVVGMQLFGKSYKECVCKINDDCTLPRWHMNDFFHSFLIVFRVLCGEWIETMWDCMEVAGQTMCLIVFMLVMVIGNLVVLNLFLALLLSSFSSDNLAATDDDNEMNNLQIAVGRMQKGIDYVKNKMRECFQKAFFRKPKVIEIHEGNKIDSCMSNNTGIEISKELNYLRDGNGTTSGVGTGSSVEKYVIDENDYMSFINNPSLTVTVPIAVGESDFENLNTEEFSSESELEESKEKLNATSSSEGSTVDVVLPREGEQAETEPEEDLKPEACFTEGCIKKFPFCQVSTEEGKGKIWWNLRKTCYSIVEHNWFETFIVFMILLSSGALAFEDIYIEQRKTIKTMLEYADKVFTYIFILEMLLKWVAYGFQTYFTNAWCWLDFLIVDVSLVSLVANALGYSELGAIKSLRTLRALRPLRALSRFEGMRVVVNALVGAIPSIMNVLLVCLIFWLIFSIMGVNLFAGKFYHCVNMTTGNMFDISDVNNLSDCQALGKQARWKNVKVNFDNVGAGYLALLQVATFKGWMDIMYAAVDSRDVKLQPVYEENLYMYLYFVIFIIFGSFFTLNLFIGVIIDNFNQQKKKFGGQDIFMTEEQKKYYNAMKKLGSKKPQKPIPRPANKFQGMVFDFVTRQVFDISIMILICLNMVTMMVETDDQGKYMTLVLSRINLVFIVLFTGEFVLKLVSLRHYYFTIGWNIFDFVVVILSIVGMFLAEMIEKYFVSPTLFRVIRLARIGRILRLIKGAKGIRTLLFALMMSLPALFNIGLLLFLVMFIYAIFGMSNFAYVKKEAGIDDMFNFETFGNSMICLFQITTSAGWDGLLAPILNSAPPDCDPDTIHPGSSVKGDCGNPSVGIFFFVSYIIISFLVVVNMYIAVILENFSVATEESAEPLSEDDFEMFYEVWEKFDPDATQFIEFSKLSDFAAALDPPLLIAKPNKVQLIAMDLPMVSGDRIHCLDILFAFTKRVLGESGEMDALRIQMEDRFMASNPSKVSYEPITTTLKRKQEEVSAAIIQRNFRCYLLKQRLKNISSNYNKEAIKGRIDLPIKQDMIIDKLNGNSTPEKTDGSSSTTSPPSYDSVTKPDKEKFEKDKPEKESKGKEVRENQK

As usually defined, the IC50 is the midpoint of a concentration-inhibition curve. Regarding `NC1=N[C@H](O)[C@H]2[C@H]3O[C@]4(O)O[C@@H]([C@@H](O)[C@@]2(N1)[C@@H]4O)[C@]3(O)CO` [TTX, tetrodotoxin], the IC50 at NaV1.3 [1] is 0.015 µM; on NaV1.6, 0.006 µM; on NaV1.8 [2] it was over 50 µM; at NaV1.9, 1 µM; at NaV1.1, 0.01 µM; at NaV1.2, 0.01 µM.
With `NCC1(CC(=O)O)CCCCC1` [Gabapentin], the “patients in whom it works” value in [3] is listed as 60%.
In the case of `COc1cccc(N(C(=O)c2cnc(N3CCSCC3)nc2-c2ccccc2F)C(C)C)c1` [compound 62], the half-maximal inhibitory concentration (IC50) is 2 to 10 µM against CaV2.2, 2 to 10 µM at NaV1.3 [4] and over 10 µM against NaV1.8 [5].
In the case of `O=C(c1cnc(N2CCOCC2)nc1-c1ccccc1F)N(Cc1cccc(F)c1)C1CC1` [compound 110], the IC50 on CaV2.2 was 2 to 10 µM; against NaV1.3 [4], over 10 µM; against NaV1.8 [5] it was over 10 µM.
For `O=C(c1cnc(N2CCOCC2)nc1-c1ccccc1F)N(Cc1cccc(C(F)(F)F)c1)C1CC1` [compound 195], the concentration for half-maximal inhibition (IC50) was 2 to 10 µM on CaV2.2, over 10 µM on NaV1.3 [4] and over 10 µM against NaV1.8 [5].
Consider `CC(C)N(C(=O)c1cnc(N2CCOCC2)nc1-c1ccccc1F)c1cccc([N+](=O)[O-])c1` [compound 178], for which the IC50 at CaV2.2, on NaV1.3 [4] and against NaV1.8 [5] was over 10 µM in each case.
As to `CN1CCN(c2ncc(C(=O)N(Cc3ccccc3)C3CCCC3)c(-c3ccccc3F)n2)CC1` [compound 148], the IC50 was 2 to 10 µM against CaV2.2, over 10 µM against NaV1.3 [4] and over 10 µM on NaV1.8 [5].
For the compound `COc1cccc(N(C(=O)c2cnc(N3CCCCC3)nc2-c2ccccc2Cl)C(C)C)c1` [compound 175], the IC50 against CaV2.2 is 2 to 10 µM; against NaV1.3 [4] it was 2 to 10 µM; against NaV1.8 [5], over 10 µM.
For `COc1cccc(N(C(=O)c2cnc(N3CCC4CCCCC4C3)nc2-c2ccccc2F)C(C)C)c1` (stereo not shown) [compound 34], the 50% inhibitory concentration (IC50) at CaV2.2 was 2 to 10 µM; against NaV1.3 [4], 2 to 10 µM; on NaV1.8 [5], over 10 µM.
Turning to `CC(C)N(C(=O)c1cnc(N2CCOCC2)nc1-c1ccccc1F)c1ccc2c(c1)OCO2` [compound 182], the IC50 at CaV2.2 is 2 to 10 µM; against NaV1.3 [4], over 10 µM; against NaV1.8 [5], over 10 µM.
With `O=C(c1cnc(N2CCSCC2)nc1-c1ccccc1F)N1Cc2ccccc2C1` [compound 206], the half-maximal inhibitory concentration (IC50) at CaV2.2, against NaV1.3 [4] and against NaV1.8 [5] was over 10 µM in each case.
`CN1CCN(c2ncc(C(=O)N(Cc3ccc(F)cc3)C3CC3)c(-c3ccccc3F)n2)CC1` [compound 39]: the IC50 at CaV2.2, on NaV1.3 [4] and against NaV1.8 [5] was over 10 µM each time.
`COc1cccc(N(C(=O)c2cnc(N3CCCCC3)nc2-c2ccccc2F)C2CCC2)c1` [compound 116]: the 50% inhibitory concentration (IC50) was 2 to 10 µM against CaV2.2, 2 to 10 µM on NaV1.3 [4] and over 10 µM against NaV1.8 [5].
As for `COc1cc2c(cc1OC)CN(C(=O)c1cnc(N3CCOCC3)nc1-c1ccccc1F)CC2` [compound 144], the half-inhibitory concentration (IC50) against CaV2.2, at NaV1.3 [4] and on NaV1.8 [5] was over 10 µM throughout.
For the compound `Cc1nc(N2CCOCC2)nc(-c2ccccc2F)c1C(=O)N(Cc1ccc2c(c1)CCO2)C1CC1` [compound 200], the IC50 at CaV2.2 is 2 to 10 µM; against NaV1.3 [4], 2 to 10 µM; against NaV1.8 [5], over 10 µM.
On to `CC(C)N(C(=O)c1cnc(N2CCC3CCCCC3C2)nc1-c1ccccc1F)c1cccc(C#N)c1` (stereo not shown) [compound 54], for which the IC50 at CaV2.2 is 2 to 10 µM; on NaV1.3 [4], 2 to 10 µM; on NaV1.8 [5], over 10 µM.
With `CC(C)N(Cc1ccc(C(C)(C)C)cc1)C(=O)c1cnc(N2CCCCC2)nc1-c1ccccc1F` [compound 122], the values for the half-inhibitory concentration (IC50) on CaV2.2, against NaV1.3 [4] and against NaV1.8 [5] were 2 to 10 µM, over 10 µM and over 10 µM, respectively.
`Cc1nc(N2CCCCC2)nc(-c2ccccc2F)c1C(=O)N(Cc1ccc2c(c1)CCO2)C1CC1` [compound 192]: the concentration for half-maximal inhibition (IC50) on CaV2.2, on NaV1.3 [4] and against NaV1.8 [5] was over 10 µM throughout.
On to `CC(C)N(Cc1cccc(O)c1)C(=O)c1cnc(N2CCOCC2)nc1-c1ccccc1F` [compound 5], for which the half-inhibitory concentration (IC50) at CaV2.2 was 2 to 10 µM; at NaV1.3 [4], over 10 µM; at NaV1.8 [5], over 10 µM.
Consider `COc1ccc(N(C(=O)c2cnc(N3CCCCC3)nc2-c2ccccc2F)C(C)C)cc1` [compound 108], for which the IC50 against CaV2.2 is under 2 µM; on NaV1.3 [4], 2 to 10 µM; against NaV1.8 [5] it was over 10 µM.
On the same counts, the results for `O=C(c1cnc(N2CCSCC2)nc1-c1ccccc1F)N(Cc1ccccc1)C1CCCC1` [compound 157] are 2 to 10 µM, 2 to 10 µM and over 10 µM.
On the same counts, the results for `Cc1ccc(Nc2ncc(C(=O)N(Cc3ccccc3)C(C)C)c(-c3ccccc3F)n2)cc1` [compound 63] are over 10 µM, over 10 µM and over 10 µM.
On the same counts, the results for `CCN(CCOC)c1ncc(C(=O)N(Cc2ccccc2)C(C)C)c(-c2ccccc2F)n1` [compound 83] are under 2 µM, 2 to 10 µM and 2 to 10 µM.
`CC(C)N(Cc1ccccc1)C(=O)c1cnc(N2CCCCC2)nc1-c1ccccc1F` [compound 117]: the figures for the half-inhibitory concentration (IC50) at CaV2.2, against NaV1.3 [4] and against NaV1.8 [5] were under 2 µM, 2 to 10 µM and 2 to 10 µM, respectively.
Turning to `O=C(c1cnc(N2CCOCC2)nc1-c1ccccc1F)N1CCc2ccccc2C1` [compound 107], the half-inhibitory concentration (IC50) on CaV2.2, against NaV1.3 [4] and on NaV1.8 [5] was over 10 µM in each case.
For `CC(C)N(Cc1ccccc1)C(=O)c1cnc(N2CCOCC2)nc1-c1ccc(Oc2ccccc2)cc1` [compound 123], the IC50 on CaV2.2 is 2 to 10 µM; on NaV1.3 [4], over 10 µM; against NaV1.8 [5], over 10 µM.
In the case of `CC(C)N(C(=O)c1cnc(N2CCN(C)CC2)nc1-c1ccccc1F)c1ccccc1` [compound 23], the IC50 at CaV2.2, against NaV1.3 [4] and at NaV1.8 [5] was over 10 µM each time.
